system: Isolated Rat Bladder Strips; assay: Inhibition of contractions in isolated rat bladder strips (KCl-stimulated); format: cell-based, Sprague-Dawley rats; details: 30 μM, 15 mM KCl, read-out: Percent inhibition (I) at 30 μM
Text: The smooth muscle relaxing activity of the compounds of this invention was established in accordance with standard pharmaceutically accepted test procedures with representative compounds as follows:
Sprague-Dawley rats (150-200 g) are rendered unconscious by CO2 asphyxiation and then euthanized by cervical dislocation. The bladder is removed into warm (37 deg. C.) physiological salt solution (PSS) of the following composition (mM): NaCl, 118.4; KCl, 4.7; CaCl2, 2.5; […]; NaHCO3, 24.9; KH2 PO4, 1.2; glucose, 11.1; EDTA, 0.023; gassed with […]; pH 7.4. The bladder is opened and then cut into strips 1-2 mm in width and 7-10 mm in length. The strips are subsequently suspended in a 10 mL tissue bath under an initial resting tension of 1.5 g. The strips are held in place by two surgical clips one of which is attached to a fixed hook while the other is attached to an isometric force transducer. […] The carbachol is then washed out and the tissue allowed to relax to its resting level of activity. Following a further 30 min period of recovery an additional 15 mM KCl are introduced into the tissue bath. This increase in KCl concentration results in a large increase in the amplitude of spontaneous contractions (and initiation of contractions in previously quiescent strips) superimposed upon a small increase in basal tone. Following stabilization of this enhanced level of contractile activity, incremental increases in the concentration of test compound or vehicle are introduced into the tissue bath. Contractile activity is measured for each compound or vehicle concentration during the last minute of a 30 minute challenge.
The isometric force developed by the bladder strips is measured using a […] to elicit 50% inhibition of pre-drug contractile activity (IC50 concentration) and is calculated from this concentration-response curve.

| SMILES | inhibition at 30 µM |
| --- | --- |
| C[C@@H](Nc1c(NCc2cc3cc(C#N)ccc3o2)c(=O)c1=O)C(C)(C)C [Example 12, 2-{[3,4-Dioxo-2-(1,2,2-trimethyl-propylamino)-cyclobut-1-enylamino]-methyl}-benzofuran-5-carbonitrile] | 5.5 ± 4% |
| CC(C)(C)Nc1c(NCc2cc3cc([N+](=O)[O-])ccc3o2)c(=O)c1=O [Example 10, 3-tert-butylamino-4-[(5-nitro-benzofuran-2-ylmethyl)-amino]-cyclobut-3-ene-1,2-dione] | 11.5 ± 3.2% |
| CC(C)N(C)c1c(NCc2ccncc2)c(=O)c1=O [Example 7, 3-(Isopropyl-methyl-amino)-4-[(pyridin-4-ylmethyl)-amino]-cyclobut-3-ene-1,2-dione] | 27.3 ± 7% |
| CC(C)(Cc1ccccc1)Nc1c(NCc2cc3cc(C#N)ccc3o2)c(=O)c1=O [Example 14, 2-{[2-(1,1-Dimethyl-2-phenyl-ethylamino)-3,4-dioxo-cyclobut-1-enylamino]-methyl}-benzofuran-5-carbonitrile] | 31.9 ± 6.4% |
| CC(C)(C)Nc1c(NCc2cc3cc(C#N)ccc3o2)c(=O)c1=O [Example 13, 2-[(2-tert-butylamino-3,4-dioxo-cyclobut-1-enylamino)-methyl]-benzofuran-5-carbonitrile] | 19.9 ± 8.5% |
| CCC(C)(C)Nc1c(NCc2cc3cc([N+](=O)[O-])ccc3o2)c(=O)c1=O [Example 9, 3-(1,1-Dimethyl-propylamino)-4-[(5-nitro-benzofuran-2-ylmethyl)-amino]-cyclobut-3-ene-1,2-dione] | 22.2 ± 7.4% |

same assay, conditions: 0.5 h, 30 μM, 15 mM KCl, read-out: Percent contraction (C) at 30 μM

| SMILES | activity at 30 µM |
| --- | --- |
| C[C@@H](Nc1c(NCc2cc3cc([N+](=O)[O-])ccc3o2)c(=O)c1=O)C(C)(C)C [Example 8, 3-[(5-nitro-benzofuran-2-ylmethyl)-amino]-4-(1,2,2-trimethylpropylamino)-cyclobut-3-ene-1,2-dione] | 8.5 ± 1.4% |

same assay, conditions: 0.5 h, 15 mM KCl, 30 minute challenge

| SMILES | IC50 |
| --- | --- |
| C[C@@H](Nc1c(NCc2cc3cc(C#N)ccc3o2)c(=O)c1=O)C(C)(C)C [Example 12, 2-{[3,4-Dioxo-2-(1,2,2-trimethyl-propylamino)-cyclobut-1-enylamino]-methyl}-benzofuran-5-carbonitrile] | 3750 ± 1440 nM |
| CC(C)(C)Nc1c(NCc2ccccn2)c(=O)c1=O [Example 6, 3-tert-Butylamino-4-[(pyridin-2-ylmethyl)amino]-cyclobut-3-ene-1,2-dione] | 11400 ± 4300 nM |
| CCC(C)(C)Nc1c(NCc2cccnc2)c(=O)c1=O [Example 2] | 1250 ± 390 nM |
| CC(C)(C)Nc1c(NCc2ccncc2)c(=O)c1=O [Example 4, 3-tert-Butylamino-4-[(pyridin-4-ylmethyl)amino]-cyclobut-3-ene-1,2-dione] | 3000 ± 200 nM |
| CC(Nc1c(NCc2ccncc2)c(=O)c1=O)C(C)(C)C (stereo not drawn) [Example 15, 3-[(Pyridin-4-ylmethyl)-amino]-4-(1,2,2-trimethyl-propylamino)-cyclobut-3-ene-1,2-dione] | 2450 ± 990 nM |
| CCC(C)(C)Nc1c(NCc2ccncc2)c(=O)c1=O [Example 1, 3-(1,1-Dimethylpropylamino)-4-[(pyridin-4-ylmethyl)-amino]-cyclobut-3-ene-1,2-dione] | 420 ± 60 nM |
| CCC(C)(C)Nc1c(NCc2cc3cc(C#N)ccc3o2)c(=O)c1=O [Example 11, 2-{[2-(1,1-Dimethyl-propylamino)-3,4-dioxo-cyclobut-1-enylamino]-methyl}-benzofuran-5-carbonitrile] | 1560 ± 160 nM |
| CC(C)(C)Nc1c(NCc2cccnc2)c(=O)c1=O [Example 5, 3-tert-Butylamino-4-[(pyridin-3-ylmethyl)amino]-cyclobut-3-ene-1,2-dione] | 2630 ± 220 nM |
| CCC(C)(C)Nc1c(NCc2oc3ccc(C#N)cc3c2Cl)c(=O)c1=O [Example 16, 2-{[2-(1,1-Dimethyl-propylamino)-3,4-dioxo-cyclobut-1-enylamino]-methyl}-3-chloro-benzofuran-5-carbonitrile] | 1300 ± 630 nM |
| CCC(C)(C)Nc1c(NCc2ccccn2)c(=O)c1=O [Example 3, 3-(1,1-Dimethylpropylamino)-4-[(pyridin-2-ylmethyl)amino]-cyclobut-3-ene-1,2-dione] | 1250 ± 340 nM |

system: hypertrophied bladder (detrussor) smooth muscle; assay: Inhibition of spontaneous contractions in vivo, hypertrophied rat bladder model (conscious rats, cystometry); parameters: species or system female Sprague-Dawley rats; details: 10 mg/kg p.o., 3 animals, conscious female rats, second cystometry one hour after dosing
Procedure: In addition, we tested the ability of the compound of Example 1, as representative of the other compounds of this invention, to inhibit the hyperactivity of hypertrophied bladder (detrussor) smooth muscle in conscious female rats with hypertrophied bladders and thereby alleviate urinary incontinence according to the protocol described by Malmgrem et al., J. Urol. 142:1134, 1989.
Female Sprague-Dawley rats, ranging in weight from 190-210 g are used. Up to 25 animals are prepared each time. After development of bladder hypertrophy 4-8 animals are used per test.
Compounds are dissolved in PEG-200 and administered by gastric gavage or intraveneously in a volume of 5 ml/kg. For primary screening all drugs are administered at the arbitrary dose of 10 mg/kg p.o. to groups of 4 rats.
The animals are anesthetized with halothane. […]
The following urodynamic variables are recorded:
The mean value of each variable is calculated before and after compound administration. For each compound the changes in the variables measured are compared to the values obtained before treatment and expressed as percent inhibition. The data are also subjected to 2-way analysis of variance to determine significant (p<0.05) changes in the variable measured.

| SMILES | % Red (F): percent reduction in the total number of spontaneous contractions in the hypertrophied rat bladder model |
| --- | --- |
| CCC(C)(C)Nc1c(NCc2ccncc2)c(=O)c1=O [Example 1, 3-(1,1-Dimethylpropylamino)-4-[(pyridin-4-ylmethyl)-amino]-cyclobut-3-ene-1,2-dione] | -8 ± 4% |
